Data: patent US4550186A, “Binuclear copper (II) carboxylates formed from amine-carboxyboranes” (Duke University, priority 1983, dated 1985)

Columns and labels:
Acetyl CoA Carboxylase = biological target: T1, Acetyl CoA Carboxylase (Mus musculus, UniProt Q5SWU9); assay: In vivo liver enzyme study: acetyl CoA carboxylase; settings: CF1 liver after 16 days i.p.
T1 construct: 10% homogenates of CF1 male mouse liver; from tissue; host or cells: CF1 male mouse liver, 10% homogenate
Protocol: In vitro enzymatic studies were determined using 10% homogenates of CF1 male mouse liver with 50-200 μM of test drugs. In vivo enzymatic studies were determined using 10% homogenates of liver from CF1 male mice obtained after administering the agents for 16 days at a dose ranging from 2.5-20 mg/kg/day intraperitoneally. The liver homogenates for both in vitro and in vivo studies were prepared in 0.25M sucrose and 0.001M (ethylenedinitrilo)tetraacetic acid. Acetyl coenzyme A synthetase and adenosine triphosphate dependent citrate lyase activities were determined spectrophotometrically at 540 nm as the hydroxylamate of acetyl coenzyme A formed after 30 min at 37° C. Mitochondrial citrate exchange was determined by the procedure of Robinson et al [Eur. J. Biochem., 216, 63 (1970)] using ^14 C-sodium bicarbonate (41 mCi/mmol) incorporated into mitochondrial ^14 C-citrate after isolating rat mitochondria (9000 g×10 min) from the homogenates. The exchanges of the ^14 C-citrate were determined after incubating the mitochondrial fraction which was loaded with labeled citrate and test drugs for 10 min. Then the radioactivity was measured in the mitochondrial and supernantant fractions in scintillation fluid and expressed as a percentage. Cholesterol side chain oxidation was determined by the method of Kritchevsky and Tepper [Artherosclerosis, 18, 93 (1973)] using (26-^14 C) cholesterol (50 mCi/mmol) and mitochondria isolated from rat liver homogenates. […] Fatty acid synthetase activity was determined by the method of Brady et al [J. Biol. Chem., 235, 3093 (1960)] using [2-^14 C] malonyl-coenzyme A (37.5 mCi/mmol) which was incorporated into newly synthesized fatty acids that were extracted with ether and counted. Acyl transferase activity was determined with glycerol-3phosphate [L-2-^3 H(N)] […] HCl and counted. Phosphatidate phosphohydrolase activity was measured as the inorganic phosphate released after 30 min from phosphatidic acid by the method of Mavis et al [J. Lipid Res., 19, 467 (1978)]. […]

[1] = biological target: T2, carbamyl phosphate synthetase (Mus musculus, UniProt B2RQC6); assay: In vivo carbamyl phosphate synthetase activity
T2 construct: CPSase II domain of CAD; ornithine transcarbamylase used as coupling enzyme
Protocol: CF1 male mice (~30 g) were implanted with 2×10^6 Ehrlich ascites tumor cells, intraperitoneally on Day 0. Compound I was suspended by homogenation in 0.05% polysorbate.80-water and administered intraperitoneally at 10 and 20 mg/kg for 9 days to determine its effectiveness for inhibition of tumor growth. Mice were sacrificed on Day 10, and the ascites fluid was collected from the peritoneal cavity. The volume and ascrit (packed cell volume) were determined for each animal and the percent inhibition of tumor growth was calculated. For the metabolic studies, mice were treated on Days 8 and 9 with 10 mg/kg of Compound I, intraperitoneally. […]
Carbamyl phosphate synthetase activity was determined using the reaction medium of Kalman et al [Am. […] Citrulline formed from ornithine was measured at 490 nm by the method of Archibald [J. Biol. Chem., 156, 121 (1944)]. […] The ^14 CO2 generated in 15 min was trapped in 1M KOH and counted. Thymidylate synthetase activity was determined using a post-mitochondrial supernatant (9000 g×10 min) and 5 μCi of 5-^3 H-deoxyuridine monophosphate (14 Ci/mmol) according to the method of Kampf et al [ J. Med. Chem., 19, 903 (1976)]. ^14 C-Formate incorporation into purines was determined by the method of Spassova et al [Biochem. Pharmacol., 25, 923 (1976)] using 0.5 μCi of ^14 C-formic acid (52.0 mCi/mmol). […] The Rf value for xanthine monophosphate was scraped and counted. […]

T2 sequence (B2RQC6 2-2225): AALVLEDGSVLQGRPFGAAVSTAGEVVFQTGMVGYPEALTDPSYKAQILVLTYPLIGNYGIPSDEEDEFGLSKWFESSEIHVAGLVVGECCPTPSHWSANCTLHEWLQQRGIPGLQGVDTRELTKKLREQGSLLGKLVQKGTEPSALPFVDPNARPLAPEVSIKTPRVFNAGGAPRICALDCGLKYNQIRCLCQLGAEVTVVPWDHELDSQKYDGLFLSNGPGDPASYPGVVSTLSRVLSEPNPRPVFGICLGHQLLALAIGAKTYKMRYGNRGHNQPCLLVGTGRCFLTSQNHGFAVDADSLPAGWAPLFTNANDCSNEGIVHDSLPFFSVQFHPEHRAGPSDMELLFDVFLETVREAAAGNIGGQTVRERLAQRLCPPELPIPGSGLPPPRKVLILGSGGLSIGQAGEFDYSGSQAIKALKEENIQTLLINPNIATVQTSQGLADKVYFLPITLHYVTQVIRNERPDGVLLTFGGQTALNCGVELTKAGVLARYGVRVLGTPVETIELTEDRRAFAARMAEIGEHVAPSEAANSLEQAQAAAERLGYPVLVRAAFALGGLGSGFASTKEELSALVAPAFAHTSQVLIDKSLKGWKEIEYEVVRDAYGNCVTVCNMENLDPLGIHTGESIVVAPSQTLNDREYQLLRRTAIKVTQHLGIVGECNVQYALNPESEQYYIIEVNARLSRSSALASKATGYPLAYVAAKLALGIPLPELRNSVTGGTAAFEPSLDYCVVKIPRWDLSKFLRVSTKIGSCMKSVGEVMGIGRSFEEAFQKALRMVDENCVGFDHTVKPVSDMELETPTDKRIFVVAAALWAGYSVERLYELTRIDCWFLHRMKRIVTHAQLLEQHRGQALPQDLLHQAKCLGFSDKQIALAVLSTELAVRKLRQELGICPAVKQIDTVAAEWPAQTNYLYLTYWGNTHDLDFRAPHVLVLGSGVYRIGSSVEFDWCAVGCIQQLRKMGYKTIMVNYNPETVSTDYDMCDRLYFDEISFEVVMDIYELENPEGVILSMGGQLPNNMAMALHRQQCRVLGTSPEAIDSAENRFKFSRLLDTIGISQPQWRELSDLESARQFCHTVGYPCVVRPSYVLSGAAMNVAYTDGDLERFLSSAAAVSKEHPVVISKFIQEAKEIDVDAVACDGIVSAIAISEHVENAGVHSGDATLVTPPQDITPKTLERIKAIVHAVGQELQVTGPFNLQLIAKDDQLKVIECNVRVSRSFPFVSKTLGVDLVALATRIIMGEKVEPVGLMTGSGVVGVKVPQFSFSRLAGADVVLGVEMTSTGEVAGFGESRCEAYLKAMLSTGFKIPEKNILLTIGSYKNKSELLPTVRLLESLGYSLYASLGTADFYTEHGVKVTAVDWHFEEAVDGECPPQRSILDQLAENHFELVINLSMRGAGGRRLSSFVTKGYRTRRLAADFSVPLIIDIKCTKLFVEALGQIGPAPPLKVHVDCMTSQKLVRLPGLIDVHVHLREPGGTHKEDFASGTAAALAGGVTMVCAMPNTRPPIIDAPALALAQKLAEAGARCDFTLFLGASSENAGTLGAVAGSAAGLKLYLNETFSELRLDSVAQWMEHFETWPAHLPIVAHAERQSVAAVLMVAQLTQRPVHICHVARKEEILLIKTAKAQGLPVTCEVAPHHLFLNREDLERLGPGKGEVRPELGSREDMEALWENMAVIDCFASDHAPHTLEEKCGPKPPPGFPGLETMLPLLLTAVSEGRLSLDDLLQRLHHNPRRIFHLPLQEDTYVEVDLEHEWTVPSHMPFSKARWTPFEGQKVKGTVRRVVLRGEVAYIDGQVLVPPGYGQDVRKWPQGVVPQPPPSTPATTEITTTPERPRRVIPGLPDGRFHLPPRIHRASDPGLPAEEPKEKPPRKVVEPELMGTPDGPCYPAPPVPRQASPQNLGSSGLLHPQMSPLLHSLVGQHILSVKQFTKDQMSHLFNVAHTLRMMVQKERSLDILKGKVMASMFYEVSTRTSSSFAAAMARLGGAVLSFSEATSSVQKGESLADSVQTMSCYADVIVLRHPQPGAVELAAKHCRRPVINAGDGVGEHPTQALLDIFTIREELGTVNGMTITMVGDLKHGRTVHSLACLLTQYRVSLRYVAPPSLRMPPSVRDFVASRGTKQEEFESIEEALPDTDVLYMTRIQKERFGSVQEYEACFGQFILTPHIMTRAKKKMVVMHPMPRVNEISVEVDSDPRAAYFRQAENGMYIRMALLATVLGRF

{Cu[(CH3)3 N.BH2 CO2 ]2.(CH3)3 N.BH2 COOH} [Compound I]
Acetyl CoA Carboxylase (Acetyl CoA Carboxylase; 2.5 mg/kg): 103 ± 6% of control
Acetyl CoA Carboxylase (Acetyl CoA Carboxylase; 5.0 mg/kg): 95% of control
Acetyl CoA Carboxylase (Acetyl CoA Carboxylase; 10 mg/kg): 120 ± 7% of control
Carbamyl phosphate synthetase activity reduced [1]: 23%
Carbamyl phosphate synthetase activity ([1]; 10 mg/kg/day I.P. on Days 8 and 9): 77 ± 8 % Control
